# From US20110172274A1, “FLUORO-SUBSTITUTED 3,4-DIARYL-4,5-DIHYDRO-1H-PYRAZOLE-1-CARBOXAMIDINE DERIVATIVES HAVING CB1-ANTAGONISTIC ACTIVITY” (priority 2008, published 2011)
# Columns and labels:
# [1] = biological target: T1, human cannabinoid CB1 receptors (Homo sapiens, UniProt P21554); assay: In vitro affinity for cannabinoid-CB1 receptors, [3H]CP-55,940 radioligand binding, CHO cell membranes; conditions: for Ki: CHO membranes, [3H]CP-55,940, means of at least two independent experiments, read-out: receptor binding h-CB1 receptor Ki; for factor of higher affinity for human CB1 receptors than non-fluorinated analog compound 24: (S)-(-)-enantiomers versus compound 24
# T1 construct: expressed in transfected cells; host or cells: Chinese hamster ovary (CHO) cells, membrane preparations
# T1 sequence (P21554 whole entry): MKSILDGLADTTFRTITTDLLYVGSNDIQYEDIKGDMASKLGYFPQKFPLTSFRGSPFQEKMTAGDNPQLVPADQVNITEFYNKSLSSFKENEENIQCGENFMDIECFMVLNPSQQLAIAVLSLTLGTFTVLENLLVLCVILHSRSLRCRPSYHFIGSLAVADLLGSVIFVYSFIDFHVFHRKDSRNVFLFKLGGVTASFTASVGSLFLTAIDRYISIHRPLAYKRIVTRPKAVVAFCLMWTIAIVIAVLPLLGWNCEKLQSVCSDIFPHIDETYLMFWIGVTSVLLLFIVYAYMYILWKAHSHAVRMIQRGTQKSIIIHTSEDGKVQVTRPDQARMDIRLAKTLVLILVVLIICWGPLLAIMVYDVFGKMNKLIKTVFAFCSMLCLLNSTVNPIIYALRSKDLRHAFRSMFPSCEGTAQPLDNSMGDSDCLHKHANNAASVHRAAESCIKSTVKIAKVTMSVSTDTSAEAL
# Description: In vitro affinity for cannabinoid-CB1 receptors was determined using membrane preparations of Chinese hamster ovary (CHO) cells wherein human cannabinoid CB1 receptors were stably transfected in conjunction with [^3H]CP-55,940 as radioligand. After incubation of a freshly prepared cell membrane preparation with the [^3H]-ligand, with or without addition of compounds of the invention, separation of bound and free ligand was performed by filtration over glassfiber filters. Radioactivity on the filter was measured by liquid scintillation counting. The binding data were either obtained by CEREP (128, rue Danton, 92500 Rueil-Malmaison, France) or at Solvay Pharmaceuticals B.V. (C. J. van Houtenlaan 36, 1381 CP Weesp, The Netherlands).
# rat CB1 receptor = biological target: T2, rat CB1 receptor (Rattus norvegicus, UniProt P20272); assay: In vivo cannabinoid-CB1 receptor antagonism, CP-55,940-induced hypotension test in rat; conditions: for ED50: rat, p.o., anaesthetized male rats, CP-55,940 0.1 mg/kg i.v., read-out: blood pressure rat CB1 receptor ED50 (mg/kg, p.o.)
# T2 construct: Male normotensive rats (225-300 g; Harlan, Horst, The Netherlands) were anaesthetized; from tissue; host or cells: whole animal: male normotensive rats (Harlan)
# T2 sequence (P20272 whole entry): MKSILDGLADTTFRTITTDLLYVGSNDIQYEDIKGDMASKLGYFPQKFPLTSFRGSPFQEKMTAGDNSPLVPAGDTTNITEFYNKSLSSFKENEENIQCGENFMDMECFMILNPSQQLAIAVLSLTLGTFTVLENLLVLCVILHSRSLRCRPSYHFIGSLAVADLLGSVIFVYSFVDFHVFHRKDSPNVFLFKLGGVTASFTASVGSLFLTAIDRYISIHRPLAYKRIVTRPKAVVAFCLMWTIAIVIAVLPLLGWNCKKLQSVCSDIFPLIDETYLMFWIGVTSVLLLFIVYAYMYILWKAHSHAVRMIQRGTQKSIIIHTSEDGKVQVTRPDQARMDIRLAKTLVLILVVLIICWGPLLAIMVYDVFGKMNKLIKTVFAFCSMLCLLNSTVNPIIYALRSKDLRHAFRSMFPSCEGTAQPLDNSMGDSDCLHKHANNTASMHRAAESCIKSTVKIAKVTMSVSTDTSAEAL
# Description: In vivo cannabinoid-CB1 receptor antagonism was assessed with the CP-55,940-induced hypotension test in rat. Male normotensive rats (225-300 g; Harlan, Horst, The Netherlands) were anaesthetized with pentobarbital (80 mg/kg ip). Blood pressure was measured, via a cannula inserted into the left carotid artery, by means of a Spectramed DTX-plus pressure transducer (Spectramed B.V., Bilthoven, The Netherlands). After amplification by a Nihon Kohden Carrier Amplifier (Type AP-621G; Nihon Kohden B.V., Amsterdam, The Netherlands), the blood pressure signal was registered on a personal computer (Compaq Deskpro 386s), by means of a Po-Ne-Mah data-acquisition program (Po-Ne-Mah Inc., Storrs, USA). Heart rate was derived from the pulsatile pressure signal. All compounds were administered orally as a microsuspension in 1% methylcellulose 30 minutes before induction of the anesthesia, 60 minutes prior to administration of the CB1 receptor agonist CP-55,940. The injection volume was 10 ml/kg. After haemodynamic stabilization the CB1 receptor agonist CP-55,940 (0.1 mg/kg i.v.) was administered and the hypotensive effect established (Wagner 2001).
# [2] = biological target: T3, human cannabinoid CB2 receptors (Homo sapiens, UniProt P34972); assay: In vitro affinity for cannabinoid-CB2 receptors, [3H]CP-55,940 radioligand binding, CHO cell membranes; conditions: means of at least two independent experiments, read-out: receptor binding h-CB2 receptor Ki
# T3 construct: expressed in transfected cells; host or cells: CHO cells, membrane preparations
# T3 sequence (P34972 whole entry): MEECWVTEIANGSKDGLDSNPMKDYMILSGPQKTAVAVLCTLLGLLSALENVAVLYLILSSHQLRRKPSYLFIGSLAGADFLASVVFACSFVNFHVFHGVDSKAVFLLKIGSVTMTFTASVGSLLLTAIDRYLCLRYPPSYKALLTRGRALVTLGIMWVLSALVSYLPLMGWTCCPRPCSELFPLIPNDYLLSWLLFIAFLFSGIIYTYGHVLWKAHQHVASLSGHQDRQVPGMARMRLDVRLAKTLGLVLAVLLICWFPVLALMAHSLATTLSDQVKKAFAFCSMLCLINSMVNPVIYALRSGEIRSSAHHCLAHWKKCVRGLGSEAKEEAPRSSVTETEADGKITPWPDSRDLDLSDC
# Description: In vitro affinity for cannabinoid-CB2 receptors was determined using membrane preparations of CHO cells wherein human cannabinoid CB2 receptors were stably transfected in conjunction with [^3H]CP-55,940 as radioligand. After incubation of a freshly prepared cell membrane preparation with the [^3H]-ligand, with or without addition of compounds of the invention, separation of bound and free ligand was performed by filtration over glassfiber filters. Radioactivity on the filter was measured by liquid scintillation counting.
SMILES,Ki [1] [nM],other results
"CN/C(=N/S(=O)(=O)N1CCCCC1)N1CC(c2ccccc2)C(c2ccc(Cl)cc2)=N1 (centres unmarked) [compound 21, reference compound]",152,
"CN=C(NS(=O)(=O)N1CCC(C(F)(F)F)CC1)N1C[C@@H](c2ccccc2)C(c2ccc(Cl)cc2)=N1 [compound 10, (+)-(4R)—N-[(4-(Trifluoromethyl)piperidin-1-yl)sulfonyl]-N′-methyl-3-(4-chlorophenyl)-4-phenyl-4,5-dihydro-(1H)-pyrazole-1-carboxamidine]",125,"in vivo activity in the hypotension test (rat CB1 receptor; given at 30 mg/kg): devoid of in vivo activity; ED50 (rat CB1 receptor): > 30 mg/kg; Ki [2]: > 1000 nM; affinity for human CB1 receptors, fold less than that of compound 9 ([1]; distomer versus eutomer compound 9): about 40 fold"
"CN/C(=N/S(=O)(=O)N1CCCCC1)N1C[C@H](c2ccccc2)C(c2ccc(Cl)cc2)=N1 [compound 24, reference compound]",58,ED50 (rat CB1 receptor): 8 mg/kg; Ki [2]: 3500 nM
"CN=C(NS(=O)(=O)N1CCCC(F)C1)N1CC(c2ccccc2)C(c2ccc(Cl)cc2)=N1 (racemic) [compound 4, N-[(3-Fluoropiperidin-1-yl)sulfonyl]-N′-methyl-3-(4-chlorophenyl)-4-phenyl-4,5-dihydro-(1H)-pyrazole-1-carboxamidine]",16,melting point: 170 to 171 °C
"CN(C)/C(=N/S(=O)(=O)N1CCC(F)(F)CC1)N1CC(c2ccccc2)C(c2ccc(Cl)cc2)=N1 (centres unmarked) [compound 7, N^2-[(4,4-Difluoropiperidin-1-yl)sulfonyl]-N^1-dimethyl-3-(4-chlorophenyl)-4-phenyl-4,5-dihydro-(1H)-pyrazole-1-carboxamidine]",25,
"CNC(=NS(=O)(=O)N1CCCCC1)N1C[C@@H](c2ccccc2)C(c2ccc(Cl)cc2)=N1 [compound 25, reference compound]",763,
"CCN=C(NS(=O)(=O)N1CCC(F)(F)CC1)N1CC(c2ccccc2)C(c2ccc(Cl)cc2)=N1 (racemic) [compound 6, N-[(4,4-Difluoropiperidin-1-yl)sulfonyl]-N′-ethyl-3-(4-chlorophenyl)-4-phenyl-4,5-dihydro-(1H)-pyrazole-1-carboxamidine]",10,

# The remaining compounds from weak to strong by Ki [1], led by results:
Ki [1] [nM],SMILES,other results
10,"CN=C(NS(=O)(=O)N1CCCC(F)(F)C1)N1CC(c2ccccc2)C(c2ccc(Cl)cc2)=N1 (racemic) [compound 5, N-[(3,3-Difluoropiperidin-1-yl)sulfonyl]-N′-methyl-3-(4-chlorophenyl)-4-phenyl-4,5-dihydro-(1H)-pyrazole-1-carboxamidine]",melting point: 166 to 167 °C
10,"CN=C(NS(=O)(=O)N1CCC(F)(F)CC1)N1CC(c2ccccc2)C(c2ccc(Cl)cc2)=N1 (racemic) [compound 1, N-[(4,4-difluoropiperidin-1-yl)sulfonyl]-N′-methyl-3-(4-chlorophenyl)-4-phenyl-4,5-dihydro-(1H)-pyrazole-1-carboxamidine]",
5,"CNC(=NS(=O)(=O)N1CCC(F)CC1)N1CC(c2ccccc2)C(c2ccc(Cl)cc2)=N1 (racemic) [compound 3, N-[(4-Fluoropiperidin-1-yl)sulfonyl]-N′-methyl-3-(4-chlorophenyl)-4-phenyl-4,5-dihydro-(1H)-pyrazole-1-carboxamidine]",
5,"CN=C(NS(=O)(=O)N1CCC(F)(F)CC1)N1C[C@H](c2ccccc2)C(c2ccc(Cl)cc2)=N1 [compound 8, (−)-(4S)—N-[(4,4-difluoropiperidin-1-yl)sulfonyl]-N′-methyl-3-(4-chlorophenyl)-4-phenyl-4,5-dihydro-(1H)-pyrazole-1-carboxamidine]",factor of higher affinity for human CB1 receptors than non-fluorinated analog compound 24 [1]: 12 fold
3,"CN=C(NS(=O)(=O)N1CCC(C(F)(F)F)CC1)N1C[C@H](c2ccccc2)C(c2ccc(Cl)cc2)=N1 [compound 9, (−)-(4S)—N-[(4-(Trifluoromethyl)piperidin-1-yl)sulfonyl]-N′-methyl-3-(4-chlorophenyl)-4-phenyl-4,5-dihydro-(1H)-pyrazole-1-carboxamidine]","in vivo activity after oral administration compared with compound 24 (rat CB1 receptor; oral administration, CP-55,940-induced hypotension test): more active; ED50 (rat CB1 receptor): 2 mg/kg; Ki [2]: 316 nM; factor of higher affinity for human CB1 receptors than non-fluorinated analog compound 24 [1]: 19 fold"
3,"CN/C(=N\S(=O)(=O)N1CCC(C(F)(F)F)CC1)N1CC(c2ccccc2)C(c2ccc(Cl)cc2)=N1 (racemic) [compound 2, N-[(4-(Trifluoromethyl)piperidin-1-yl)sulfonyl]-N′-methyl-3-(4-chlorophenyl)-4-phenyl-4,5-dihydro-(1H)-pyrazole-1-carboxamidine]",
